System: Human Heme Oxygenase-1 (HMOX-1)
Test: ELISA assay to measure human heme oxygenase-1 (HMOX-1) in HepG2 lysate
Format: cell-based
Details: fold change of human HMOX1 protein levels relative to DMSO control, HepG2
In short: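 HO-1 protein quantified by chemiluminescent sandwich ELISA against a 2-fold standard series starting at 20 ng/ml. Samples were 1:20-diluted HepG2 lysates made in Triton X-100/EDTA buffer with protease inhibitors. Capture antibody coated at 8 μg/ml, detection antibody used at 200 ng/ml, room-temperature (20 °C) steps.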

SMILES | Maximum Fold induction
COCCNC(=O)c1ccc2c(c1)nc(Nc1nc3ccc(C4CC4)cc3o1)n2C [Example 116, 2-((6-cyclopropylbenzo[d]oxazol-2-yl)amino)-N-(2-methoxyethyl)-1-methyl-1H-benzo[d]imidazole-5-carboxamide] | 32-38
Cn1c(Nc2nc3cccc(C(F)(F)F)c3o2)nc2cc(C(=O)NCCOCCO)ccc21 [Example 117, N-(2-(2-hydroxyethoxy)ethyl)-1-methyl-2-((7-(trifluoromethyl)benzo[d]oxazol-2-yl)amino)-1H-benzo[d]imidazole-5-carboxamide] | 38
Cn1c(Nc2nc3cc(C(=O)NCCOCCO)ccc3o2)nc2ccccc21 [Example 118, N-(2-(2-hydroxyethoxy)ethyl)-2-((1-methyl-1H-benzo[d]imidazol-2-yl)amino)benzo[d]oxazole-5-carboxamide] | 24
CC(O)CONC(=O)c1ccc2c(c1)nc(Nc1nc3ccccc3o1)n2C (stereo not drawn) [Example 120, 2-(benzo[d]oxazol-2-ylamino)-N-(2-hydroxypropoxy)-1-methyl-1H-benzo[d]imidazole-5-carboxamide] | 26
CN(C)CC(=O)NCCONC(=O)c1ccc2c(c1)nc(Nc1nc3ccccc3o1)n2C [Example 121, 2-(benzo[d]oxazol-2-ylamino)-N-(2-(2-(dimethylamino)acetamido)ethoxy)-1-methyl-1H-benzo[d]imidazole-5-carboxamide] | 22-23
Cn1c(Nc2nc3ccc(C(F)(F)F)cc3o2)nc2cc(C(=O)NOCCO)ccc21 [Example 125, N-(2-hydroxyethoxy)-1-methyl-2-((6-(trifluoromethyl)benzo[d]oxazol-2-yl)amino)-1H-benzo[d]imidazole-5-carboxamide] | 32-59
Cn1c(Nc2nc3ccc(OC(F)(F)F)cc3o2)nc2cc(C(=O)NOCCO)ccc21 [Example 126, N-(2-hydroxyethoxy)-1-methyl-2-((6-(trifluoromethoxy)benzo[d]oxazol-2-yl)amino)-1H-benzo[d]imidazole-5-carboxamide] | 33-37
Cn1c(Nc2nc3cc(F)c(C(F)(F)F)cc3o2)nc2cc(C(=O)NOCCO)ccc21 [Example 130, 2-((5-fluoro-6-(trifluoromethyl)benzo[d]oxazol-2-yl)amino)-N-(2-hydroxyethoxy)-1-methyl-1H-benzo[d]imidazole-5-carboxamide] | 42
CC1CCc2nc(Nc3nc4cc(C(=O)NOCCO)ccc4n3C)sc2C1 (stereo not drawn) [Example 131, N-(2-hydroxyethoxy)-1-methyl-2-((6-methyl-4,5,6,7-tetrahydrobenzo[d]thiazol-2-yl)amino)-1H-benzo[d]imidazole-5-carboxamide] | 35-62
COCCONC(=O)c1ccc2c(c1)nc(Nc1nc3ccc(C(C)=O)cc3o1)n2C [Example 132, 2-((6-acetylbenzo[d]oxazol-2-yl)amino)-N-(2-methoxyethoxy)-1-methyl-1H-benzo[d]imidazole-5-carboxamide] | 39
Cn1c(Nc2nc3ccc(-c4cscn4)cc3o2)nc2cc(C(=O)NCCOCCO)ccc21 [Example 134, N-(2-(2-hydroxyethoxy)ethyl)-1-methyl-2-((6-(thiazol-4-yl)benzo[d]oxazol-2-yl)amino)-1H-benzo[d]imidazole-5-carboxamide] | 42-70
Cn1c(Nc2nc3ccc(N4CCCC4)cc3o2)nc2cc(C(=O)NCCOCCO)ccc21 [Example 137, N-(2-(2-hydroxyethoxy)ethyl)-1-methyl-2-((6-(pyrrolidin-1-yl)benzo[d]oxazol-2-yl)amino)-1H-benzo[d]imidazole-5-carboxamide] | 24-70
Cn1c(Nc2nc3ccc(OC4CCOCC4)cc3o2)nc2cc(C(=O)NCCOCCO)ccc21 [Example 138, N-(2-(2-hydroxyethoxy)ethyl)-1-methyl-2-((6-((tetrahydro-2H-pyran-4-yl)oxy)benzo[d]oxazol-2-yl)amino)-1H-benzo[d]imidazole-5-carboxamide] | 20
Cn1c(Nc2nc3ccccc3o2)nc2cc(/C(=N/O)C(F)(F)F)ccc21 [Example 140, (Z)-1-(2-(benzo[d]oxazol-2-ylamino)-1-methyl-1H-benzo[d]imidazol-5-yl)-2,2,2-trifluoroethan-1-one oxime] | 19
Cn1c(Nc2nc3ccccc3o2)nc2cc(C(O)C(F)(F)F)ccc21 (stereo not drawn) [Example 142, 1-(2-(benzo[d]oxazol-2-ylamino)-1-methyl-1H-benzo[d]imidazol-5-yl)-2,2,2-trifluoroethan-1-ol] | 27

More lines, now with the values ahead:

Maximum Fold induction | SMILES
47-65 | COCCONC(=O)c1ccc2c(c1)nc(Nc1nc3ccccc3o1)n2C [Example 119, 2-(benzo[d]oxazol-2-ylamino)-N-(2-methoxyethoxy)-1-methyl-1H-benzo[d]imidazole-5-carboxamide]
51-67 | CN(C)CCONC(=O)c1ccc2c(c1)nc(Nc1nc3ccc(C(F)(F)F)cc3o1)n2C [Example 122, N-(2-(dimethylamino)ethoxy)-1-methyl-2-((6-(trifluoromethyl)benzo[d]oxazol-2-yl)amino)-1H-benzo[d]imidazole-5-carboxamide]
22 | CN(C)CCONC(=O)c1ccc2c(c1)nc(Nc1nc3ccccc3o1)n2C [Example 123, 2-(benzo[d]oxazol-2-ylamino)-N-(2-(dimethylamino)ethoxy)-1-methyl-1H-benzo[d]imidazole-5-carboxamide]
31-52 | COCCONC(=O)c1ccc2c(c1)nc(Nc1nc3ccc(C(F)(F)F)cc3o1)n2C [Example 124, N-(2-methoxyethoxy)-1-methyl-2-((6-(trifluoromethyl)benzo[d]oxazol-2-yl)amino)-1H-benzo[d]imidazole-5-carboxamide]
27-36 | COCCONC(=O)c1ccc2c(c1)nc(Nc1nc3ccc(OC(F)(F)F)cc3o1)n2C [Example 127, N-(2-methoxyethoxy)-1-methyl-2-((6-(trifluoromethoxy)benzo[d]oxazol-2-yl)amino)-1H-benzo[d]imidazole-5-carboxamide]
48-75 | COCCOc1ccc2nc(Nc3nc4cc(C(=O)NOCCO)ccc4n3C)oc2c1 [Example 128, N-(2-hydroxyethoxy)-2-((6-(2-methoxyethoxy)benzo[d]oxazol-2-yl)amino)-1-methyl-1H-benzo[d]imidazole-5-carboxamide]
54-58 | Cn1c(Nc2nc3ccc(OCCO)cc3o2)nc2cc(C(=O)NOCCO)ccc21 [Example 129, N-(2-hydroxyethoxy)-2-((6-(2-hydroxyethoxy)benzo[d]oxazol-2-yl)amino)-1-methyl-1H-benzo[d]imidazole-5-carboxamide]
17 | Cn1c(Nc2nc3ccc(C(C)(C)O)cc3o2)nc2cc(C(=O)NCCO)ccc21 [Example 133, N-(2-hydroxyethyl)-2-((6-(2-hydroxypropan-2-yl)benzo[d]oxazol-2-yl)amino)-1-methyl-1H-benzo[d]imidazole-5-carboxamide]
1 | CN1CC(c2ccc3nc(Nc4nc5cc(C(=O)NCCOCCO)ccc5n4C)oc3c2)OC1=O (stereo not drawn) [Example 135, N-(2-(2-hydroxyethoxy)ethyl)-1-methyl-2-((6-(3-methyl-2-oxooxazolidin-5-yl)benzo[d]oxazol-2-yl)amino)-1H-benzo[d]imidazole-5-carboxamide]
36 | Cn1c(Nc2nc3ccc(N4CCOCC4)cc3o2)nc2cc(C(=O)NCCOCCO)ccc21 [Example 136, N-(2-(2-hydroxyethoxy)ethyl)-1-methyl-2-((6-morpholinobenzo[d]oxazol-2-yl)amino)-1H-benzo[d]imidazole-5-carboxamide]
21 | Cn1c(Nc2nc3ccccc3o2)nc2cc(C(=O)C(F)(F)F)ccc21 [Example 139, 1-(2-(benzo[d]oxazol-2-ylamino)-1-methyl-1H-benzo[d]imidazol-5-yl)-2,2,2-trifluoroethan-1-one]
22 | Cn1c(Nc2nc3ccccc3o2)nc2cc(C(N)C(F)(F)F)ccc21 (stereo not drawn) [Example 141, N-(5-(1-amino-2,2,2-trifluoroethyl)-1-methyl-1H-benzo[d]imidazol-2-yl)benzo[d]oxazol-2-amine]

Reference: patent US20240051952A1, “HMOX1 INDUCERS” (Mitobridge Inc., priority 2019, published 2024)
